The values that follow come from patent US10414763B2 (CANCER RESEARCH TECHNOLOGY LIMITED, priority 2014, dated 2019).

The test has as its target T1, full-length human PKCι (Homo sapiens, UniProt P41743).
T1 construct: Recombinant, full-length human PKCι expressed in Sf21 insect cells is also commercially available; purchased EMD Millipore; host or cells: Sf21 insect cells (baculovirus)
T1 sequence (P41743 1-596): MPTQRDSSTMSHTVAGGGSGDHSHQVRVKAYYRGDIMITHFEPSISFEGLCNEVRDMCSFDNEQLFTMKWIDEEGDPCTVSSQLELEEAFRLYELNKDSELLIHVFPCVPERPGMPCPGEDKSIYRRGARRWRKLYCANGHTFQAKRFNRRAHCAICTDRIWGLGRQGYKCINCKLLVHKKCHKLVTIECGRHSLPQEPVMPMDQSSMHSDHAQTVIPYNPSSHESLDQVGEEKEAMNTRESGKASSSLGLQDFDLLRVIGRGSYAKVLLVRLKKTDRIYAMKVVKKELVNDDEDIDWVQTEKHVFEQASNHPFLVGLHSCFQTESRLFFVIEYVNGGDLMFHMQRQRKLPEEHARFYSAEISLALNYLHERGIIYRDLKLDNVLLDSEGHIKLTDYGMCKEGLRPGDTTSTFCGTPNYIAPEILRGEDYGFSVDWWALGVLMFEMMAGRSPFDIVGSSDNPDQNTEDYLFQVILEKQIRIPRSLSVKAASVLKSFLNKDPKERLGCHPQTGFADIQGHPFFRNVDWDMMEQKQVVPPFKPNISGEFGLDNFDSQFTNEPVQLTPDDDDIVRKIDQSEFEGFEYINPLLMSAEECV
Put plainly: PKCι IC50 IMAP fluorescence polarisation assay, full-length enzyme, 150 μM ATP. The class given is biochemical. The note with it: read-out: IC50 in IMAP assay against full length PKCi at 150 μM ATP. The gist of the method:
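IMAP fluorescence polarisation kinase assay: 15 pM baculovirus-expressed human PKCiota with 100 nM FAM-pseudosubstrate peptide and 150 μM ATP, 1 h at 25 °C. IMAP detection reagent then 2 h at 25 °C before FP measurement. Inhibition referenced to no-compound and no-enzyme controls for IC50 fitting.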
A general note: Fluorescence polarisation rises when a labelled molecule tumbles more slowly, as on binding a larger partner.

One may read the IC50 as the concentration at which inhibition is half-maximal. Regarding `C[C@H]1CNCC[C@H]1Nc1nc(-c2ccnc(Nc3nc(F)ccc3F)c2)nc2cncc(C3CCC3)c12` (single isomer, unassigned) [Example 298, {5-Cyclobutyl-2-[2-(3,6-difluoro-pyridin-2-ylamino)-pyridin-4-yl]-pyrido[3,4-d]pyrimidin-4-yl}-((3S,4R)-3-methyl-piperidin-4-yl)-amine or enantiomer], the IC50 was less than 100 nM.
Turning to `CN(c1nc(-c2ccnc3[nH]c(-c4cccnc4)cc23)nc2cncc(C3CC3)c12)C1CCNCC1(C)C` (stereo not shown) [Example 61, [5-Cyclopropyl-2-(2-pyridin-3-yl-1H-pyrrolo[2,3-b]pyridin-4-yl)-pyrido[3,4-d]pyrimidin-4-yl]-(3,3-dimethyl-piperidin-4-yl)-methyl-amine], the IC50 was less than 100 nM.
For `CC1(C)CNCC[C@@H]1Nc1nc(-c2ccnc(Nc3nc(F)cc(F)c3F)c2)nc2cncc(C3CC3)c12` [Example 325, 5-Cyclopropyl-N-[(4S)-3,3-dimethyl-4-piperidyl]-2-[2-[(3,4,6-trifluoro-2-pyridyl)amino]-4-pyridyl]pyrido[3,4-d]pyrimidin-4-amine] the value was less than 100 nM; for `NC1CCC(Nc2nc(-c3ccnc4[nH]c5ccccc5c34)nc3cncc(C4CCC4)c23)C1` (stereo not shown) [Example 60, N-[5-Cyclobutyl-2-(9H-pyrido[2,3-b]indol-4-yl)-pyrido[3,4-d]pyrimidin-4-yl]-cyclopentane-1,3-diamine], less than 100 nM; for `OC[C@H]1CNCCN1c1nc(-c2ccnc3[nH]c(C(F)(F)F)cc23)nc2cncc(C3CCC3)c12` [Example 7, {(R)-1-[5-Cyclobutyl-2-(2-trifluoromethyl-1H-pyrrolo[2,3-b]pyridin-4-yl)-pyrido[3,4-d]pyrimidin-4-yl]-piperazin-2-yl}-methanol], 100 to 1000 nM.
In the case of `CN(c1nc(-c2ccnc3[nH]c4ccccc4c23)nc2cncc(C3CCC3)c12)C1CC2NC(=O)OC2C1` (stereo not shown) [Example 375, 5-{[5-Cyclobutyl-2-(9H-pyrido[2,3-b]indol-4-yl)-pyrido[3,4-d]pyrimidin-4-yl]-methyl-amino}-hexahydro-cyclopentoxazol-2-one] it was 100 to 1000 nM.
For `O[C@]12CCN(c3nc(-c4ccnc(Nc5ncn(-c6ccccc6)n5)c4)nc4cncc(C5CC5)c34)[C@H]1CCNC2` [Example 236] the value was less than 100 nM; for `C[C@H]1C[C@@H](Nc2nc(-c3ccnc(Nc4nc(F)ccc4F)c3)nc3cncc(C4CCC4)c23)CCN1` (racemic) [Example 386, {5-Cyclobutyl-2-[2-(3,6-difluoro-pyridin-2-ylamino)-pyridin-4-yl]-pyrido[3,4-d]pyrimidin-4-yl}-(rac-(2S,4S)-2-methyl-piperidin-4-yl)-amine], less than 100 nM.
Take `CC1(C)CNCC[C@@H]1Nc1nc(-c2ccnc3[nH]c(-c4cc(F)ccc4F)cc23)nc2cncc(C3CC3)c12` [Example 361, {5-Cyclopropyl-2-[2-(2,5-difluoro-phenyl)-1H-pyrrolo[2,3-b]pyridin-4-yl]-pyrido[3,4-d]pyrimidin-4-yl}-((S)-3,3-dimethyl-piperidin-4-yl)-amine]: the concentration for half-maximal inhibition (IC50) is less than 100 nM.
As for `Cc1nc(Nc2cc(-c3nc(N[C@@H]4CCNC[C@@H]4O)c4c(C5CCC5)cncc4n3)ccn2)ccc1C#N` (racemic) [Example 313, 6-{4-[5-Cyclobutyl-4-(rac-(3S,4R)-3-hydroxy-piperidin-4-ylamino)-pyrido[3,4-d]pyrimidin-2-yl]-pyridin-2-ylamino}-2-methyl-nicotinonitrile], the 50% inhibitory concentration (IC50) was less than 100 nM.
In the case of `Fc1cc(F)c(Nc2cc(-c3nc(NC4CCCNCC4)c4c(C5CCC5)cncc4n3)ccn2)nc1F` (stereo not shown) [Example 159, Azepan-4-yl-{5-cyclobutyl-2-[2-(3,5,6-trifluoro-pyridin-2-ylamino)-pyridin-4-yl]-pyrido[3,4-d]pyrimidin-4-yl}-amine] it was less than 100 nM; in that of `FC(F)(F)c1cncc2nc(-c3ccnc4[nH]c5ccccc5c34)nc(NC3CCNCC3)c12` [Example 348, Piperidin-4-yl-[2-(9H-pyrido[2,3-b]indol-4-yl)-5-trifluoromethyl-pyrido[3,4-d]pyrimidin-4-yl]-amine], less than 100 nM.
For `CC1(C)CNCCC1Nc1nc(-c2ccnc(Nc3cc(C#N)ccn3)c2)nc2cncc(C3CCC3)c12` (stereo not shown) [Example 107, 2-{4-[5-Cyclobutyl-4-(3,3-dimethyl-piperidin-4-ylamino)-pyrido[3,4-d]pyrimidin-2-yl]-pyridin-2-ylamino}-isonicotinonitrile] the value was less than 100 nM; for `c1ccc2c(c1)[nH]c1nccc(-c3nc(N4CCC5(CCCNC5)C4)c4c(C5CCC5)cncc4n3)c12` (stereo not shown) [Example 250, 4-[5-Cyclobutyl-4-(2,7-diaza-spiro[4.5]dec-2-yl)-pyrido[3,4-d]pyrimidin-2-yl]-9H-pyrido[2,3-b]indole], less than 100 nM; for `CC1(C)CNCC[C@@H]1Nc1nc(-c2ccnc(Nc3ncn(-c4ccccc4)n3)c2)nc2cncc(C3CCC3)c12` [Example 329, 5-Cyclobutyl-N-[(4S)-3,3-dimethyl-4-piperidyl]-2-[2-[(1-phenyl-1,2,4-triazol-3-yl)amino]-4-pyridyl]pyrido[3,4-d]pyrimidin-4-amine], less than 100 nM.
For `O[C@H]1CNCC[C@H]1Nc1nc(-c2ccnc(Nc3ncc(F)cc3F)c2)nc2cncc(C3CCC3)c12` (racemic) [Example 293, rac-(3S,4R)-4-{5-Cyclobutyl-2-[2-(3,5-difluoro-pyridin-2-ylamino)-pyridin-4-yl]-pyrido[3,4-d]pyrimidin-4-ylamino}-piperidin-3-ol], the IC50 is less than 100 nM.
In the case of `FC(F)(F)c1cc2c(-c3nc(N4CCCC5NCCCC54)c4c(C5CCC5)cncc4n3)ccnc2[nH]1` (racemic) [Example 81, 5-Cyclobutyl-4-(octahydro-[1,5]naphthyridin-1-yl)-2-(2-trifluoromethyl-1H-pyrrolo[2,3-b]pyridin-4-yl)-pyrido[3,4-d]pyrimidine] it was less than 100 nM; in that of `COc1nc(-c2cc3c(-c4nc(N5CCNCC5)c5c(C6CC6)cncc5n4)ccnc3[nH]2)cs1` [Example 112, 5-Cyclopropyl-2-[2-(2-methoxy-thiazol-4-yl)-1H-pyrrolo[2,3-b]pyridin-4-yl]-4-piperazin-1-yl-pyrido[3,4-d] pyrimidine], less than 100 nM; in that of `c1ccc2c(c1)[nH]c1nccc(-c3nc(N4CCOC5CNCC54)c4c(C5CCC5)cncc4n3)c12` (stereo not shown) [Example 206, 4-[5-Cyclobutyl-4-(hexahydro-pyrrolo[3,4-b][1,4]oxazin-4-yl)-pyrido[3,4-d]pyrimidin-2-yl]-9H-pyrido[2,3-b]indole], less than 100 nM.
Consider `c1ccc2c(c1)[nH]c1nccc(-c3nc(NCC4COCCN4)c4c(C5CCC5)cncc4n3)c12` (stereo not shown) [Example 251, [5-Cyclobutyl-2-(9H-pyrido[2,3-b]indol-4-yl)-pyrido[3,4-d]pyrimidin-4-yl]-morpholin-3-ylmethyl-amine], for which the concentration for half-maximal inhibition (IC50) lay within 1000 to 10000 nM.
In the case of `CC1(C)CNCCC1Nc1nc(-c2ccnc(Nc3ncccc3F)c2)nc2cncc(C3CCC3)c12` (stereo not shown) [Example 70, {5-Cyclobutyl-2-[2-(3-fluoro-pyridin-2-ylamino)-pyridin-4-yl]-pyrido[3,4-d]pyrimidin-4-yl}-(3,3-dimethyl-piperidin-4-yl)-amine] it was less than 100 nM.
For `COCc1ccccc1-c1cc2c(-c3nc(N[C@H]4CCNCC4(C)C)c4c(C5CC5)cncc4n3)ccnc2[nH]1` [Example 357, {5-Cyclopropyl-2-[2-(2-methoxymethyl-phenyl)-1H-pyrrolo[2,3-b]pyridin-4-yl]-pyrido[3,4-d]pyrimidin-4-yl}-((S)-3,3-dimethyl-piperidin-4-yl)-amine] the value was less than 100 nM.
In the case of `Clc1ccc(Cl)c(-c2cc3c(-c4nc(N5CCC6NCCC65)c5c(C6CC6)cncc5n4)ccnc3[nH]2)c1` (stereo not shown) [Example 103, 5-Cyclopropyl-2-[2-(2,5-dichloro-phenyl)-1H-pyrrolo[2,3-b]pyridin-4-yl]-4-(hexahydro-pyrrolo[3,2-b]pyrrol-1-yl)-pyrido[3,4-d]pyrimidine] it was less than 100 nM; in that of `C[C@@H]1CNCC[C@H]1Nc1nc(-c2ccnc(Nc3nc(F)ccc3F)c2)nc2cncc(C3CC3)c12` (racemic) [Example 223, (±)-{5-Cyclopropyl-2-[2-(3,6-difluoro-pyridin-2-ylamino)-pyridin-4-yl]-pyrido[3,4-d]pyrimidin-4-yl}-((3,4-trans)-3-methyl-piperidin-4-yl)-amine], less than 100 nM.
For the compound `CC1(C)CNCCC1Nc1nc(-c2ccnc(Nc3cc(F)cc(F)n3)c2)nc2cncc(C3CCC3)c12` (stereo not shown) [Example 105, {5-Cyclobutyl-2-[2-(4,6-difluoro-pyridin-2-ylamino)-pyridin-4-yl]-pyrido[3,4-d]pyrimidin-4-yl}-(3,3-dimethyl-piperidin-4-yl)-amine], the 50% inhibitory concentration (IC50) lay within 100 to 1000 nM.
